Reference: patent US20110262502A1, “PULMONARY DELIVERY OF 17-HYDROXYPROGESTERONE CAPROATE (17-HPC)” (Prairie Pharmaceuticals LLC, priority 2010, published 2011)

Test system: PHA-induced IL-2 production in PBMCs
Assay: PHA-induced IL-2 production in PBMCs from healthy male smokers (no IL-2/IL-4 added), ELISA
Format: cell-based, human
Parameters: PR2005 IC50: unit not given here
Details: for mean IL-2: Table 1; for % inhibition of PHA stimulation of IL-2: Table 2
Description: PBMCs were isolated from human blood buffy coats provided by a regional blood center. Random buffy coat cells from male donors were a by-product of blood processed for clinical use and no details (i.e., personal identification and background) were provided except for tobacco use. […] PBMCs were separated using a porous high density polyethylene barrier (HISTOPAQUE from GEHealthcare Bio-Sciences AB (US). After centrifugation of blood samples in each tube (35 minutes at 800×g at room temperature, or RT), PBMCs were collected and washed twice with Hank's buffered saline solution (HBSS). PBMCs were resuspended in RPMI-1640 medium containing 10% fetal calf serum (FCS) and 15 mM glutamine and cells were counted and plated.
PBMCs (2×10^6) were incubated with or without IL-2 (13 ng/ml) and IL-4 (6.5 ng/ml) for 48 hours in RPMI-1640 medium containing 10% FCS and 2 mM glutamine. […] IL-2 and IL-4 stimulated PBMCs were also plated at a concentration of 10^6 cells/ml in 96-well plates ready for PHA (15 μg/mL, 24 hours) stimulation of cytokine release and detection by ELISA.
Serial dilutions of standards and PBMCs' supernatants were measured by enzyme linked immunosorbent assay to determine IL-2 at baseline and its levels after 17HPC, P4 and MAP treatments. Optical density was measured at 450 nm and corrected with 550 nm. The concentration of TL-2 was calculated using the standard curve and taking into account the supernatant dilution used. Detection limit for IL-2 is 4.0 pg/ml.
Data are expressed as mean±SD. The efficacies of the drug treatments were analyzed by paired t-test. One-way analysis of variance was used to compare three or more matched groups and 95% CI was performed to present groups differences. All graphs indicate mean values of results or % inhibition of PHA-stimulated IL-2. IC50 values were calculated by using a sigmoidal model (BioDataFit). A p value <0.05 was considered statistically significant.
(§1) IL-2 levels were quantified using ELISA.
IL-2 levels were quantified using ELISA. IC50 values were calculated by using a sigmoidal model (BioDataFit).
as §1, §1, §1

CCCCCC(=O)O[C@]1(C(C)=O)CC[C@H]2[C@@H]3CCC4=CC(=O)CC[C@]4(C)[C@H]3CC[C@@]21C [17HPC, 17α-HYDROXYPROGESTERONE CAPROATE]
PR2005 IC50 (Dexamethasone 0): 6.434
suppression of PHA induced IL-2 (FIG. 11, 17HPC add-on to Dexamethasone 10^−6 M): ~100%
improvements in Dexamethasone efficacy (synergetic effect of combination) (FIG. 12, 17HPC with Dexamethasone): 25-37%
mean IL-2 (17HPC 10^−5M + Dexamethasone 10^−6M): 24.61 pg/mL
mean IL-2 (17HPC 10^−5M + Dexamethasone 10^−8M): 136.2 pg/mL
mean IL-2 (17HPC 10^−5M + Dexamethasone 10^−10M): 138.6 pg/mL
mean IL-2 (17HPC 10^−5M + Dexamethasone 10^−12M): 176.2 pg/mL
mean IL-2 (17HPC 10^−5M, Dexamethasone 0): 225.6 pg/mL
mean IL-2 (17HPC 10^−7M + Dexamethasone 10^−6M): 9.914 pg/mL
mean IL-2 (17HPC 10^−7M + Dexamethasone 10^−8M): 229.3 pg/mL
mean IL-2 (17HPC 10^−7M + Dexamethasone 10^−10M): 104.5 pg/mL
mean IL-2 (17HPC 10^−7M + Dexamethasone 10^−12M): 111.6 pg/mL
mean IL-2 (17HPC 10^−7M, Dexamethasone 0): 466.3 pg/mL
mean IL-2 (17HPC 10^−10M + Dexamethasone 10^−6M): 27.18 pg/mL
mean IL-2 (17HPC 10^−10M + Dexamethasone 10^−8M): 173.5 pg/mL
mean IL-2 (17HPC 10^−10M + Dexamethasone 10^−10M): 177.7 pg/mL
mean IL-2 (17HPC 10^−10M + Dexamethasone 10^−12M): 132.3 pg/mL
mean IL-2 (17HPC 10^−10M, Dexamethasone 0): 420.6 pg/mL
mean IL-2 (17HPC 10^−11M + Dexamethasone 10^−6M): 9.05 pg/mL
mean IL-2 (17HPC 10^−11M + Dexamethasone 10^−8M): 167.9 pg/mL
mean IL-2 (17HPC 10^−11M + Dexamethasone 10^−10M): 164.4 pg/mL
mean IL-2 (17HPC 10^−11M + Dexamethasone 10^−12M): 275.2 pg/mL
mean IL-2 (17HPC 10^−11M, Dexamethasone 0): 448.2 pg/mL
% inhibition of PHA stimulation of IL-2 (17HPC 10^−5 M + Dexamethasone 10^−6 M): 97%
% inhibition of PHA stimulation of IL-2 (17HPC 10^−5 M + Dexamethasone 10^−8 M): 81%
% inhibition of PHA stimulation of IL-2 (17HPC 10^−5 M + Dexamethasone 10^−10 M): 81%
% inhibition of PHA stimulation of IL-2 (17HPC 10^−5 M + Dexamethasone 10^−12 M): 76%
% inhibition of PHA stimulation of IL-2 (17HPC 10^−5 M, Dexamethasone 0 M): 69%
% inhibition of PHA stimulation of IL-2 (17HPC 10^−7 M + Dexamethasone 10^−6 M): 99%
% inhibition of PHA stimulation of IL-2 (17HPC 10^−7 M + Dexamethasone 10^−8 M): 69%
% inhibition of PHA stimulation of IL-2 (17HPC 10^−7 M + Dexamethasone 10^−10 M): 86%
% inhibition of PHA stimulation of IL-2 (17HPC 10^−7 M + Dexamethasone 10^−12 M): 85%
% inhibition of PHA stimulation of IL-2 (17HPC 10^−7 M, Dexamethasone 0 M): 37%
% inhibition of PHA stimulation of IL-2 (17HPC 10^−10 M + Dexamethasone 10^−6 M): 96%
% inhibition of PHA stimulation of IL-2 (17HPC 10^−10 M + Dexamethasone 10^−8 M): 76%
% inhibition of PHA stimulation of IL-2 (17HPC 10^−10 M + Dexamethasone 10^−10 M): 76%
% inhibition of PHA stimulation of IL-2 (17HPC 10^−10 M + Dexamethasone 10^−12 M): 82%
% inhibition of PHA stimulation of IL-2 (17HPC 10^−10 M, Dexamethasone 0 M): 43%
% inhibition of PHA stimulation of IL-2 (17HPC 10^−11 M + Dexamethasone 10^−6 M): 99%
% inhibition of PHA stimulation of IL-2 (17HPC 10^−11 M + Dexamethasone 10^−8 M): 77%
% inhibition of PHA stimulation of IL-2 (17HPC 10^−11 M + Dexamethasone 10^−10 M): 78%
% inhibition of PHA stimulation of IL-2 (17HPC 10^−11 M + Dexamethasone 10^−12 M): 63%
% inhibition of PHA stimulation of IL-2 (17HPC 10^−11 M, Dexamethasone 0 M): 39%
IL-2 inhibition (add-on of low doses of 17HPC (10^−11 M or 10^−10 M) to lower Dexamethasone doses): ≥ 78%
effect in basal IL-2 level (no PHA stimulation, data not shown): no significant effect
PR2005 IC50 (with Dexamethasone 10^−8M): 6.243
PR2005 IC50 (with Dexamethasone 10^−10M): 11.64
PR2005 IC50 (with Dexamethasone 10^−12M): 10.92
